# Laboratory results as given in patent US9403800B2, “Compounds for inhibition of cancer cell proliferation” (ChemRegen, Inc., priority 2012, dated 2016).
# Key:
# [1] = test system: Wnt transcriptional activity; assay: cell-based Wnt-luciferase reporter assay (SuperTOPFlash); conditions: for Relative potency for Wnt inhibition: relative to IWR-1, transfected HEK293A cells treated 12 hours, normalized to Renilla
# From the text: “Hit” 1 (FIG. 1) was identified as a Wnt inhibitor in a high-throughput screen of a library of 74,000 compounds using a cell-based Wnt-luciferase reporter assay as a readout of Wnt transcriptional activity. […] Wnt transcriptional activity was monitored in HEK-293T cells using a luciferase-based Wnt reporter (SuperTOPFlash) stimulated by Wnt3a conditioned media.
# Medicinal chemical refinement of “hit” 1 was undertaken to improve its potency, maintain non-toxicity, increase water solubility and improve bioavailability. The SAR refinement of functional activity of “hit” 1 on the inhibition of the Wnt pathway was determined using a cell-based Wnt-luciferase reporter assay (described above). with Renilla Luciferase was used as a normalization for transfection efficiency. 6-8 hours after transfection, transfected HEK293A cells were treated with 1 and each analog for 12 hours. Both firefly and renilla luciferase activities were measured using a plate reader. A library of compounds was tested to obtain an SAR for 1. Compound 1 and its analogs are synthesized by a two step synthesis, Scheme 1.
# Signaling was tested using a standard luciferase response system for canonical Wnt/β-catenin/TCF signaling. Briefly, we used a cell line that had been transfected with a luciferase reporter gene under the control of the response element of a transcription factor that is activated by association with β-catenin and is the target of canonical Wnt signaling.
# [2] = test system: TGF-signaling pathway; assay: TGF-signaling pathway transcriptional activity (selectivity); assay type: cell-based
# [3] = test system: xenopus embryos; assay: xenopus embryo development and marker gene expression; assay type: in vivo
# From the text: Previous studies highlighted the importance of Wnt pathway signaling in promoting cellular differentiation. Accordingly, the physiological relevance of the Wnt inhibitory functions of 1 was shown by the effect of this compound on the morphology of xenopus embryos during embryonic development. […] Vent2 and Otx2 are regulated by TCF3 during anteroposterior axis specification in xenopus embryos and HIPK2 antagonizes them through phosphorylation of TCF3. These phenotypes are very similar to embryos with TCF3-knockout and contrast to those of HIPK2-knockout. Together, the observations indicate that compound 1 activates HIPK2 to remove TCF proteins from their target DNA via phosphorylation.
# [4] = test system: normal human fibroblast cells; assay: effect on normal human fibroblast cells; assay type: cell-based
# [5] = chemical stability by HPLC; assay type: physicochemical; conditions: determined by HPLC
# From the text: As observed from the data presented in Table 1, both free bases and salts gave significant Wnt inhibition potency. On the basis of the lipophilic character of many of the analogs, it is likely interaction site on the molecular target has a lipophilic character although polar interactions are apparent. To increase solubility, were possible, hydrochloride salts of the sulfonamides were synthesized. To afford appropriate bioavailability, sulfonamides were synthesized with chemical and metabolic stability in mind.
# [6] = test system: HCT-116; assay: inhibition of proliferation (PicoGreen DNA assay), HCT-116; assay type: cell-based; conditions: Homo sapiens
# Protocol: We tested a subset of the 50 sulfonamide analogues for inhibition of proliferation of the MDA-MB-231, PC-3, MCF-7, and HCT-116 cancer cell lines. Following plating of the cells (24 hrs) in eight identical 96-well plates, the cells were treated with either Compound 1, 4, 15, or vehicle (DMSO) using a dose range of 1.6 to 5000 nM. After the lysis of cells, the cell lysate was resuspended in 25 μl PBS and the DNA was quantified using a PicoGreen assay by measuring fluorescence at Ex490 nm/Em535 nm. Cell proliferation was inhibited by Compounds 1, 4, and 15 for all the cancer cell lines tested with inhibition constants listed in Table 2.
# [7] = test system: PC-3; assay: stimulation of apoptosis, Caspase 3/7 cleavage (Caspase-Glo Kit), PC-3; assay type: cell-based; conditions: Homo sapiens, PC-3, 24 hrs
# Protocol: (§1) Given Compounds 1, 4, and 15 inhibited cancer cell proliferation, we tested whether compounds 1, 4, and 15 stimulated cancer cell apoptosis. The MDA-MB-231, MCF-7, PC-3, and HCT-116 cells were treated with the indicated compounds for 24 hrs. over a dose range from 1.6 to 5000 nM. Apoptosis was then measured by monitoring Caspase 3/7 cleavage (Caspase-Glo Kit).
# [8] = test system: HCT-116; assay: stimulation of apoptosis, Caspase 3/7 cleavage (Caspase-Glo Kit), HCT-116; assay type: cell-based; conditions: Homo sapiens, HCT-116, 24 hrs
# Protocol: as §1
# [9] = test system: LNCap; assay: viability (Alamar Blue), LNCap; assay type: cell-based; conditions: Homo sapiens, 24 hrs
# [10] = cytotoxicity (Vibrant Cytotox assay), LNCap; assay type: cell-based; conditions: human, LNCap cells
# [11] = cytotoxicity (Vibrant Cytotox assay), MDA-MB-231; assay type: cell-based; conditions: human, MDA-MB-231 cells; MDA-MB-231, 24 hrs
# Protocol: Given Compounds 1, 4, and 15 inhibited cancer cell proliferation and stimulated apoptosis, we tested the effects compounds 1, 4, and 15 on cancer cell viability and cytotoxicity. The MDA-MB-231, MCF-7, PC-3, and HCT-116 cells were treated with the indicated compounds for 24 hrs. over a dose range from 1.6 to 5000 nM. Viability and cytotoxicity were then measured by the Alamar Blue and Vibrant Cytotox assays respectively.
# [12] = test system: PC-3 prostate tumors; assay: PC-3 prostate tumor xenograft; assay type: in vivo, mice; conditions: for growth of PC-3 prostate tumors: i.p. 30 mg/kg daily for 19 days
# Protocol: Based on the inhibition of cancer cell proliferation by the disclosed compounds the disclosed compounds likely will inhibit cancer cell migration. […] Following establishment of HCT-116 tumors, daily doses of either Compound 15 or vehicle were administered by i.p. injection at 20 mg/kg for 28 days. […] The weight of the excised HCT-116 tumors was 77% lower for the Compound 15-treated mice relative to the vehicle control on Day 28 of the experiment. […] Following establishment of PC-3 tumors, daily doses of either Compounds 1, 15 or vehicle were administered by i.p. injection at 30 mg/kg for 19 days. […] The weight of the excised PC-3 tumors was 66% for compound 15-treated mice compared to vehicle-treated controls on Day 19 of the experiment.
# [13] = test system: HEK293 cells; assay: apoptosis in HEK293 cells; assay type: cell-based; conditions: upon treatment
# [14] = in vivo toxicity assessment in rats; conditions: 30 mg/kg p.o. daily for one week
# Protocol: Compounds of structure I were designed to be chemically and metabolically stable and non-toxic. For example, the alpha methyl group of the quinoxalin ring system protects the sulfonamide from rapid metabolism or hydrolysis. […] We tested Compounds 4 and 15 for toxicity in rats. In one study, we dosed rats with Compound 4 (p.o) daily for one week with 30 mg/kg. In another study, we dosed rats daily for one week with 30 mg/kg Compound 15 by p.o. administration. We monitored the weights of the rats daily over the course of both studies. […] Blood was also obtained from the animals at termination of the experiment.
# [15] = xenopus embryos incubated with compound
SMILES,Relative potency for Wnt inhibition [1],IC50 [6],IC50 [7],IC50 [8],IC50 [9],IC50 at 24 h [10],IC50 at 24 h [11],growth of PC-3 prostate tumors [12],food or water intake or behavior [14],overall toxicity in healthy rats [14],weights of the rats compared to controls [14],further results
"O=C1CCCN1c1ccc(S(=O)(=O)N2CCCc3ccccc32)cc1 [Compound 1, 1-(4-(3,4-dihydroquinolin-1(2H)-ylsulfonyl)phenyl)pyrrolidin-2-one]",+++ (between 40 to 60% potency compared to IWR-1),40 nM,49 nM,96 nM,90 nM,> 5000 nM,> 5000 nM,inhibited the growth of PC-3 prostate tumors,,,,"EC50 ([1]; Homo sapiens, HEK-293T cells, SuperTOPFlash stimulated by Wnt3a conditioned media, read-out: inhibition of Wnt transcriptional activity, EC50): ~25 nM; transcriptional activity of the TGF-signaling pathway [2]: did not alter the transcriptional activity; posterior development of xenopus embryos ([3]; treatment during the mid-blastula transition): inhibited posterior development; anterior and ventral expression domain of Vent2 [3, 15]: expanded; anterior marker gene Otx2 expression [3, 15]: decreased anterior marker gene Otx2; effect on normal human fibroblast cells [4]: did not have any affect on normal human fibroblast cells; half-life [5]: 120 h; apoptotic HEK293 cells [13]: increase in apoptotic HEK293 cells"
"CC1CCc2ccccc2N1S(=O)(=O)c1ccc(N2CCCC2=O)cc1 (stereo not shown) [Compound 4, 1-(4-(2-methyl-3,4-dihydroquinolin-1(2H)-ylsulfonyl)phenyl)pyrrolidin-2-one]",++++ (between 60 to 80% potency compared to IWR-1),100 nM,117 nM,143 nM,87 nM,> 5000 nM,> 5000 nM,,no differences in food or water intake or behavior,nontoxic,no differences in the weights of the rats were observed,
"CN1CCN(S(=O)(=O)c2ccc(N3CCCC3=O)cc2)c2ccccc21 [Compound 15, 1-(4-(4-methyl-3,4-dihydroquinoxalin-1(2H)-ylsulfonyl)phenyl)pyrrolidin-2-one]",,15 nM,32 nM,15 nM,124 nM,> 5000 nM,> 5000 nM,inhibited the growth of PC-3 prostate tumors,no differences in food or water intake or behavior,nontoxic,no differences in the weights of the rats were observed,"inhibition of Wnt transcriptional activity, IC50 (class symbol) ([1]; tested simultaneously with p53 reporter): ++++ (between 60 to 80% potency compared to IWR-1); weight of the excised PC-3 tumors compared to vehicle-treated controls ([12]; i.p. 30 mg/kg daily, Day 19): 66%; toxicity in tissue (liver, heart, kidney, lung and intestine) [14]: did not show any indication of toxicity; serum clinical chemistry values compared with vehicle-treated animals ([14]; at termination): did not alter the clinical chemistry values"
